Laboratory results as given in US20230165865A1, “HETEROARYLDIHYDROPYRIMIDINE DERIVATIVES AND METHODS OF TREATING HEPATITIS B INFECTIONS” (Janssen Pharmaceutica NV, priority 2018, published 2023).
Like-named read-outs stand apart in the source and are kept apart here.

Experiments:
[1] = Metabolic stability of test compound in human hepatocyte cell; assay type: in vitro ADME; conditions: cryopreserved human hepatocytes (suspension), human hepatocytes; for half-life at 1 uM: 0-120 min, read-out: T½; for CLint scaled at 1 uM: scale-up intrinsic clearance, scaling factor 2544.3, read-out: Clint (liver)
Description: (§1) • 1. The cryopreserved human hepatocytes cells were thawed in 37° C. water bath and diluted with pre-warmed incubation medium to a working cell density of 1×10^6 viable cells/mL. • 2. The 198 μL pre-warmed hepatocyte suspensions were spiked with 2 μL of 100 μM compound or reference compound(Verapamil) at a final concentration of 1.0 μM in a 96-well plate. The plate was incubated at 37° C., 900 rpm. All incubations will be performed in singlet. • 3. 25 μL aliquots of well contents were collected at time points of 0, 15, 30, 60, 90 and 120 minutes. The reactions were stopped by the addition of 6-fold volumes of cold acetonitrile with internal standards. • 4. After centrifugation for 25 minutes at 3,220 g. Aliquot of 100 μL of the supernatant was mixed with 100 μL of ultra-pure H2O and then used for LC-MS/MS analysis.
(§2) All calculations were carried out using Microsoft Excel. Peak areas were determined from extracted ion chromatograms. Determine the in vitro half-life (t1/2) of parent compound by regression analysis of the percent parent disappearance vs. time curve.
(§3) The in vitro half-life (in vitro t1/2) is determined from the slope value k:
(§4) Conversion of the in vitro t1/2(in min) into the in vitro intrinsic clearance (in vitro CLint, in μL/min/10^6 cells) is done using the following equation:
(§5) V=incubation volume (0.2 mL);
(§6) N=number of hepatocytes per well (0.2×10^6 cells).
(§7) Conversion of the in vitro t1/2(in min) into the scale-up intrinsic clearance (CLint(liver), in mL/min/kg) was done using the following equation:
(§8) CLint(liver)=kV/N×scaling factor

[2] = system: human hepatocytes; test: as above; assay type: in vitro ADME; conditions: comparing with reference 1 and reference 2
Description: as §1, §2, §3, §4, §5, §6, §7, §8

[3] = Pharmacokinetic study after intravenous and oral administration in male SD rats; assay type: in vivo; conditions: for clearance / Cmax: male, SD; for clearance / Cmax / IV AUCinf/Dose / PO AUCinf/Dose / clearance, in words / dose-normalized AUC (AUCinf/Dose), in words: rat plasma; for clearance / IV AUCinf/Dose: IV, nominal 2 mg/kg; for clearance: read-out: IV Cl; for Cmax / PO AUCinf/Dose: PO; for Cmax: nominal 5 mg/kg; for clearance, in words / dose-normalized AUC (AUCinf/Dose), in words / bioavailability (F (%)), in words: comparing with reference 2; for F / bioavailability (F (%)), in words: rat; for F: PO vs IV
Description: Male SD rats with a weight range of 250-300 g (Si Bei Fu Laboratory Animal Technology Co. Ltd, China) were used. Animals were fasted overnight and free access to food 4 hours after dosing.
(§9) Test compound (correction factor: 1.00) was dissolved in a 20% hydroxypropyl-β-cyclodextrin (HP-β-CD) at a final concentration of 1 mg/ml for the intravenous (IV) formulation and at final concentrations of 0.5 mg/ml for the oral (PO) formulation.
The intravenous formulation was dosed at 2 ml/kg to obtain a dose of 2 mg/kg. The oral formulations were dosed at 10 ml/kg to obtain final doses of 5 mg/kg.
Blood samples were taken at 5, 15 and 30 min, 1, 2, 4, 8 and 24 h after intravenous dose administration. Blood samples were taken at 15 and 30 min, 1, 2, 4, 8, 12 and 24 h after oral dose administration.
(§10) Approximately 0.20 mL blood will be collected into BD blood collection tubes containing Sodium Fluoride (NaF), Potassium Oxalate (KoX) and K3-EDTA at each time point. Samples were placed immediately on melting ice and plasma was obtained following centrifugation at 4° C. for 5 minutes at approximately 4000×g. Plasma samples were adjusted to pH 3-4 by phosphoric acid and stored at −75±15° C. prior to analysis. The whole process was completed within 1 hour.
Plasma samples were analyzed using LC-MS/MS methods. The lower limit of quantification (LLOQ) for plasma was 1.0 ng/ml.
A non-compartmental analysis using the “Linear up log down” rule was used for all data. A limited pharmacokinetic analysis was performed using Phoenix™ Professional (Version 6.1). Results: See table 10 below for plasma PK results.

[4] = system: HBV; test: Anti-viral assay in HepG2.2.15 cells: anti-HBV activity, HBV DNA in culture medium by qPCR; assay type: cell-based; conditions: HepG2.2.15 cells, 6 days treatment, HBV DNA by qPCR; read-out: EC50
Procedure, shortened: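 Cells in 2% FBS medium treated 6 days, compound and medium refreshed at day 3; 8-point 1:3 dilutions in triplicate, top 10 or 1 uM (antiviral) and 100 uM (cytotoxicity). Extracellular viral DNA quantified by qPCR, giving EC50 and CC50.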

[5] = system: HepG2.2.15 cells; test: Cytotoxicity determination in HepG2.2.15 cells (CCK-8 assay); assay type: cell-based; conditions: 6 days treatment, CCK-8, highest concentration 100 uM
Procedure, shortened: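 HepG2.2.15 cells (5,000/well, 2% FBS medium) were treated for 6 days, with medium and compound refreshed at day 3. Dosing was an 8-point 1:3 series from 100 uM, in triplicate. Viability was measured by CCK-8 after 2.5 h at 37 °C (A450, 630 nm reference), and CC50 was calculated.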

[6] = Pharmacokinetic and tissue distribution study via intravenous and oral administration in male C57BL/6 mice; assay type: in vivo; conditions: for Kp: liver and plasma, po
Description: Male C57BL/6 mice with a weight range of 20-25 g (Hua Fu Kang, China) were used. Animals were fasted overnight and free access to food 4 hours after dosing.
as §9, with “formulation. The intravenous formulation was dosed at 2 ml/kg to obtain a dose of 2 mg/kg. The oral formulations were dosed at 10 ml/kg to obtain final doses of 5 mg/kg.” for “formulation.”
Blood samples were taken at 7 and 20 min, 1, 2, 4, 8 and 24 h after intravenous dose administration. Blood and liver samples were taken at 30 min, 1, 2, 4, 8, 12 and 24 h after oral dose administration.
as §10, with “0.020” for “0.20”, “containing” for “containing Sodium Fluoride (NaF), Potassium Oxalate (KoX) and”
Liver samples were collected at adopted time point, and the vial containing the tissues sample was snap-frozen in liquid nitrogen right away and kept at −75±15° C. prior to analysis. All liver samples were weighed and homogenized with phosphoric acid solution (pH to 3-4) by liver weight (g) to phosphoric acid solution volume (mL) ratio 1:4 before analysis.
Plasma and liver samples were analyzed using LC-MS/MS methods. The lower limit of quantification (LLOQ) for plasma was 1.0 ng/ml and for liver was 2.5 ng/g. A non-compartmental analysis using the “Linear up log down” rule was used for all data. A limited pharmacokinetic analysis was performed using Phoenix™ Professional (Version 6.1).

| Structure (SMILES) | half-life at 1 uM [1] | CLint scaled at 1 uM [1] | metabolic stability in human hepatocyte cells, in words [2] | clearance [3] | Cmax [3] | IV AUCinf/Dose [3] | PO AUCinf/Dose [3] | clearance, in words [3] | dose-normalized AUC (AUCinf/Dose), in words [3] | F [3] | bioavailability (F (%)), in words [3] | EC50 [4] | CC50 [5] | further results |
| --- | --- | --- | --- | --- | --- | --- | --- | --- | --- | --- | --- | --- | --- | --- |
| COC(=O)C1=C(CN2CCN3C(=S)N(CC(C)(C)C(=O)O)CC3C2)NC(c2nccs2)=NC1c1ccc(F)cc1Cl (single isomer, unassigned) [Compound 4B, 3-(7-((6-(2-chloro-4-fluorophenyl)-5-(methoxycarbonyl)-2-(thiazol-2-yl)-3,6-dihydropyrimidin-4-yl)methyl)-3-thioxohexahydroimidazo[1,5-a]pyrazin-2(3H)-yl)-2,2-dimethylpropanoic acid] | > 4.82 h | < 6.1 mL/min/kg | improved metabolic stability | 28.8 mL/min/kg | 962 ng/mL | 594.3 ng·kg·h/mg/mL | 336.8 ng·kg·h/mg/mL | far slower clearance | over two-folds higher | 56.5% | increased (or equal) bioavailability | 0.0019 µM | 23.1 µM | – |
| CCOC(=O)C1=C(CN2CCN3C(=S)N(CC(C)(C)C(=O)O)CC3C2)NC(c2nccs2)=NC1c1cccc(F)c1Cl (single isomer, unassigned) [Compound 3B, 3-(7-((6-(2-chloro-3-fluorophenyl)-5-(ethoxycarbonyl)-2-(thiazol-2-yl)-3,6-dihydropyrimidin-4-yl)methyl)-3-thioxohexahydroimidazo[1,5-a]pyrazin-2(3H)-yl)-2,2-dimethylpropanoic acid] | 2.91 h | 10.1 mL/min/kg | improved metabolic stability | 23.4 mL/min/kg | 1180 ng/mL | 771.6 ng·kg·h/mg/mL | 389.2 ng·kg·h/mg/mL | far slower clearance | over two-folds higher | 50.3% | increased (or equal) bioavailability | 0.0017 µM | 17.8 µM | Kp ([6]; male, C57BL/6, mouse, mice, PO, read-out: AUCInf Ratio (Liver/Plasma)): 19.9; Kp ([6]; male, C57BL/6, mouse, mice, PO, read-out: Cmax Ratio (Liver/Plasma)): 15.3; clearance ([6]; male, C57BL/6, mouse, mice plasma, IV, nominal 2 mg/kg, read-out: IV Cl): 20.2 mL/min/kg; Cmax ([6]; male, C57BL/6, mouse, mice plasma, PO, dose per compound in table (5.28-9.95 mg/kg)): 2340 ng/mL; Liver AUCinf/Dose ([6]; mice liver, PO): 20884 ng·kg·h/g/mg; Liver Cmax/Dose ([6]; mice liver, PO): 6624 kg·ng/mg/mL; dose-normalized Cmax and dose-normalized AUCinf in liver, in words ([6]; mice liver, comparing with reference 1 and reference 2): far increased; IV AUCinf/Dose ([6]; mice plasma, IV, nominal 2 mg/kg): 830.9 ng·kg·h/mg/mL; PO AUCinf/Dose ([6]; mice plasma, PO): 1049.3 ng·kg·h/mg/mL; clearance, in words ([6]; mice plasma, comparing with reference 1 and reference 2): far slower clearance; F ([6]; mice, PO vs IV): 126%; bioavailability in plasma, in words ([6]; mice, comparing with reference 1 and reference 2): increased bioavailability |
